Source: ChEMBL document CHEMBL6103672, “Discovery of HMPL-306 (Ranosidenib), a New Potent and Selective Dual Inhibitor of Mutant IDH1 and 2 in Clinical Development for Cancer Treatment” (ACS Med Chem Lett, 2025)

Key:
[1] = AUC(0 to infinity) in male Sprague-Dawley rat at 5 mg/kg, po measured after 24 hrs by LC/MS/MS analysis; format: ADME, organism-based; details: in vivo
[2] = target: Voltage-gated inwardly rectifying potassium channel KCNH2 (Homo sapiens, UniProt Q12809); experiment: Inhibition of hERG expressed in CHO cells by manual patch-clamp assay; format: toxicity, cell-based
Chain of Voltage-gated inwardly rectifying potassium channel KCNH2 (Q12809 whole entry): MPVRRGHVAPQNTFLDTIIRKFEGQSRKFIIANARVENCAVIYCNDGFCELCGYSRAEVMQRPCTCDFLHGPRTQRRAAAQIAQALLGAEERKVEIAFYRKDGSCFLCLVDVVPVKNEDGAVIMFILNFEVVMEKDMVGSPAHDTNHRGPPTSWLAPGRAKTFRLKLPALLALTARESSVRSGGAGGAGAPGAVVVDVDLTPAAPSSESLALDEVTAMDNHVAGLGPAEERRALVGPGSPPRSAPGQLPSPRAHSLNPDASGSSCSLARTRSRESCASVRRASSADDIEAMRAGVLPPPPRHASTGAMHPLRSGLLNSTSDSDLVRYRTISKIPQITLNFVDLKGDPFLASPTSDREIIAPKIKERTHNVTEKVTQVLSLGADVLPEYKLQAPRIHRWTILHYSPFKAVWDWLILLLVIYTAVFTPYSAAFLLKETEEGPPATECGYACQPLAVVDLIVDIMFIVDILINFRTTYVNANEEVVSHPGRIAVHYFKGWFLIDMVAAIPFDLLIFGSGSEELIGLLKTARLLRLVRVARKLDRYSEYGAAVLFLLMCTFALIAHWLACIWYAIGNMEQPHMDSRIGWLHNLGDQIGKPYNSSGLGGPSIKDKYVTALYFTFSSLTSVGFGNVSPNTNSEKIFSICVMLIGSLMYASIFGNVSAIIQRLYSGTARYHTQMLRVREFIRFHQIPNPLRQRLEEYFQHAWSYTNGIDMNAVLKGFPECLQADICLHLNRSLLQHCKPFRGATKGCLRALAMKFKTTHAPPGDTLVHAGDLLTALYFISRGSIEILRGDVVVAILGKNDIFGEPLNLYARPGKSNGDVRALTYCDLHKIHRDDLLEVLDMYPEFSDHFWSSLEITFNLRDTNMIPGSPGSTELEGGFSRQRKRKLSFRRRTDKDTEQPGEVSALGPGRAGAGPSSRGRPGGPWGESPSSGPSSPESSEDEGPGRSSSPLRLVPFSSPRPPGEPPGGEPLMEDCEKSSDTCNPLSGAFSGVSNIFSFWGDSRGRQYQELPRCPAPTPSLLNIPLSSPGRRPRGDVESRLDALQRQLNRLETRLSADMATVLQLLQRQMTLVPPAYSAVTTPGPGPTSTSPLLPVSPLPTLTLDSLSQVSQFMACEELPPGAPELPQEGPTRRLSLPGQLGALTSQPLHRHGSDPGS

[3] = Ratio of drug concentration in brain to plasma of BALB/c nude mouse xenografted with human U-87 MG cells harboring IDH2 R140Q mutant at 50 mg/kg measured after 24 hrs by LC/MS/MS analysis; format: ADME, organism-based; details: read-out: BPR
[4] = Cmax in male ICR mouse at 10 mg/kg, po measured after 8 hrs by LC/MS/MS analysis; format: ADME, organism-based; details: in vivo
[5] = In vivo inhibition of 2-HG in BALB/c nude mouse xenografted with human U-87 MG cells harboring IDH2 R140Q mutant at 25 mg/kg, po measured after 24 hrs post dose; format: functional; details: Mus musculus, BALB/c, U-87 MG
[6] = AUC(0 to t) in male ICR mouse at 10 mg/kg, po measured upto 24 hrs by LC/MS/MS analysis; format: ADME, organism-based; details: in vivo
[7] = Apparent permeability across apical to basolateral side in human Caco-2 cells at 10 uM incubated for 1 hrs by LC-MS/MS analysis
[8] = Half life in male Sprague-Dawley rat at 5 mg/kg, po measured after 24 hrs by LC/MS/MS analysis; format: ADME, organism-based; details: in vivo
[9] = AUC(0 to t) in male Sprague-Dawley rat at 5 mg/kg, po measured after 144 hrs by LC/MS/MS analysis; format: ADME, organism-based; details: in vivo
Adenosine receptor A3 = target: T1, Adenosine receptor A3 (Homo sapiens, UniProt P0DMS8); experiment: Inhibition of adenosine A3 receptor (unknown origin); format: toxicity
T1 sequence (P0DMS8 whole entry): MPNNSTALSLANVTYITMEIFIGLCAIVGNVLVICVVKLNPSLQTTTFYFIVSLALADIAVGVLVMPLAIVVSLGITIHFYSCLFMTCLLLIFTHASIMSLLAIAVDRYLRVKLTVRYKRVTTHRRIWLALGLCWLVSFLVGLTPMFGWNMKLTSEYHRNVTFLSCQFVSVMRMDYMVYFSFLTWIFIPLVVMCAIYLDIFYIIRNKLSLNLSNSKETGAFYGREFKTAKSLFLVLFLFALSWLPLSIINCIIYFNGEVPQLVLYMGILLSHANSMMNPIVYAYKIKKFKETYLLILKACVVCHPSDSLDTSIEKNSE

[10] = Half life in male ICR mouse at 2.5 mg/kg, iv measured after 8 hrs by LC/MS/MS analysis; format: ADME, organism-based; details: in vivo
[11] = Metabolic stability in male SD rat liver microsomes assessed as parent compound remaining at 1 uM measured after 30 mins in presence of NADPH by LC-MS analysis; format: ADME, Microsome; details: Sprague-Dawley, read-out: Stability
[12] = target: Isocitrate dehydrogenase [NADP], mitochondrial (Homo sapiens, UniProt P48735, R140Q); experiment: Inhibition of IDH2 R140Q mutant (unknown origin) using alpha-ketoglutarate as substrate preincubated with compound for 16 hrs followed by substrate addition and measured after 1 hr in presence of NADPH by fluorescence based analysis
Chain of Isocitrate dehydrogenase [NADP], mitochondrial (P48735 40-452 R140Q limits assumed): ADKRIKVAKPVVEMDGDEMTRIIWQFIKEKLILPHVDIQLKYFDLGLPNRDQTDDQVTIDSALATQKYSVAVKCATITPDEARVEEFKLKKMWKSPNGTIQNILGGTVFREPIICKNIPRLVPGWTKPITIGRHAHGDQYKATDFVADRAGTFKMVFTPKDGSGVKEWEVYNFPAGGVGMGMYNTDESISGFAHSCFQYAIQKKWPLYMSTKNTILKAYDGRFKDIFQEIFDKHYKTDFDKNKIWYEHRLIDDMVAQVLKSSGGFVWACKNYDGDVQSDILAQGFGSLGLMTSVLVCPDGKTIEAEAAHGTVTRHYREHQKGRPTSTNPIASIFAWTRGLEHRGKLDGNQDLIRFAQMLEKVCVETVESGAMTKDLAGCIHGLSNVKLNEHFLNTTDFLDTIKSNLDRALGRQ

[13] = Ratio of drug concentration in brain to plasma of BALB/c nude mouse xenografted with human U-87 MG cells harboring IDH2 R140Q mutant at 50 mg/kg measured after 16 hrs by LC/MS/MS analysis; format: ADME, organism-based; details: read-out: BPR
[14] = AUC(0 to infinity) in male Sprague-Dawley rat at 1 mg/kg, iv measured after 24 hrs by LC/MS/MS analysis; format: ADME, organism-based; details: in vivo
[15] = AUC(0 to t) in male Sprague-Dawley rat at 1 mg/kg, iv measured after 144 hrs by LC/MS/MS analysis; format: ADME, organism-based; details: in vivo
[16] = Inhibition of IDH1 R132H mutant in human TF-1 cells incubated for 72 hrs by measuring 2-HG production by fluorescence based analysis; format: functional, cell-based; details: TF-1, 72 h
[17] = Half life in male Sprague-Dawley rat at 1 mg/kg, iv measured after 24 hrs by LC/MS/MS analysis; format: ADME, organism-based; details: in vivo
[18] = In vivo inhibition of 2-HG in BALB/c nude mouse xenografted with human U-87 MG cells harboring IDH2 R140Q mutant at 25 mg/kg, po measured after 40 hrs post dose; format: functional; details: Mus musculus, BALB/c, U-87 MG
[19] = Oral bioavailability in male Sprague-Dawley rat at 5 mg/kg measured after 24 hrs by LC/MS/MS analysis; format: ADME, organism-based; details: in vivo
[20] = AUC(0 to t) in male ICR mouse at 2.5 mg/kg, iv measured after 24 hrs by LC/MS/MS analysis; format: ADME, organism-based; details: in vivo
[21] = AUC(0 to infinity) in male ICR mouse at 2.5 mg/kg, iv measured after 8 hrs by LC/MS/MS analysis; format: ADME, organism-based; details: in vivo
[22] = Half life in male ICR mouse at 10 mg/kg, po measured after 8 hrs by LC/MS/MS analysis; format: ADME, organism-based; details: in vivo
[23] = In vivo inhibition of 2-HG in BALB/c nude mouse xenografted with human U-87 MG cells harboring IDH2 R140Q mutant at 25 mg/kg, po measured after 16 hrs post dose; format: functional
[24] = Inhibition of IDH2 R172K mutant in human HEK293 cells incubated for 72 hrs by measuring 2-HG production by fluorescence based analysis; format: functional, cell-based; details: HEK293, 72 h
[25] = Inhibition of IDH1 R132H mutant in human U-87 MG cells incubated for 72 hrs by measuring 2-HG production by fluorescence based analysis; format: functional, cell-based, U-87MG ATCC; details: Homo sapiens, U-87 MG, 72 h
[26] = Clearance in male ICR mouse at 2.5 mg/kg, iv measured after 8 hrs by LC/MS/MS analysis; format: ADME, organism-based; details: in vivo
UGT1A1 = target: T2, UGT1A1 (Homo sapiens, UniProt P22309); experiment: Inhibition of UGT1A1 (unknown origin) at 10 uM relative to control; format: ADME
T2 sequence (P22309 whole entry): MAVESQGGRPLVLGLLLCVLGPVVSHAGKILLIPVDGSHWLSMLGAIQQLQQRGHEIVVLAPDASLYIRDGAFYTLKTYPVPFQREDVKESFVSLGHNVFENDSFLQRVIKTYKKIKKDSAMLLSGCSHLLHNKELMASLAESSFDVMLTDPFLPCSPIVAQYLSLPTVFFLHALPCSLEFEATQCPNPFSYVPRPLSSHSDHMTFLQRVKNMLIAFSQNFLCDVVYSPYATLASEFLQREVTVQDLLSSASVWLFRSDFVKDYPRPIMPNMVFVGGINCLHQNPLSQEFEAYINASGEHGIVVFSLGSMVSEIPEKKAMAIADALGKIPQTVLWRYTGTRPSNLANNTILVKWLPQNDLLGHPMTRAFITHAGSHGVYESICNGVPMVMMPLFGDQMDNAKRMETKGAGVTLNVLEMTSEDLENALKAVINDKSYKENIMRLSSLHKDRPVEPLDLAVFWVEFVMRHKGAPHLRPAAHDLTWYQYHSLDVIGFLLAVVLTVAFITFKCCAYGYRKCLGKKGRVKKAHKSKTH

[27] = In vivo inhibition of 2-HG in BALB/c nude mouse xenografted with human HT-1080 cells harboring IDH1 R132C mutant at 25 mg/kg, po measured after 16 to 40 hrs post dose; format: functional; details: time 16-40 hrs

## C[C@@H](Nc1nc(N[C@H](C)C(F)(F)F)nc(C2=C(F)[C@H](O)C(F)(F)CC2)n1)C(F)(F)F [RANOSIDENIB]
[1]
  AUC(0-inf): 112000 ng·h/mL
[2]
  IC50: > 30000 nM
[3]
  Kp at 24 h: 2.9
[4]
  Cmax: 2050 ng/mL
[5]
  inhibition in vivo at 25 mg/kg: 98%
[6]
  AUC(0-t) at 24 h: 35000 ng·h/mL
[7]
  Papp A→B at 1 h, 10 µM: 53.3 ×10⁻⁶ cm/s
[8]
  half-life: 50.4 h
[9]
  AUC(0-t) at 144 h: 96600 ng·h/mL
Adenosine receptor A3
  IC50: 8500 nM
[10]
  half-life: 10.6 h
[11]
  remaining at 0.5 h, 1 µM: 99.5%
[12]
  IC50: 28 nM
[13]
  Kp at 16 h: 2.8
[14]
  AUC(0-inf): 19800 ng·h/mL
[15]
  AUC(0-t) at 144 h: 17100 ng·h/mL
[16]
  IC50: 31 nM
[17]
  half-life: 49.9 h
[18]
  inhibition in vivo at 25 mg/kg: 93%
[19]
  bioavailability: 113%
[20]
  AUC(0-t) at 24 h: 10400 ng·h/mL
[21]
  AUC(0-inf): 12700 ng·h/mL
[22]
  half-life: 20.2 h
[23]
  inhibition in vivo at 25 mg/kg: 96%
[24]
  IC50: 425 nM
[25]
  IC50: 50 nM
[26]
  clearance: 3.3 mL/min/kg
UGT1A1
  inhibition at 10 µM: 46.7%
[27]
  inhibition in vivo at 25 mg/kg: ≥ 90%
